From BindingDB's records for doi:10.1016/S0960-894X(98)00531-9 (Glaxo Wellcome Research and Development, 1999)

Target: not listed separately
Test: Compound was evaluated for the inhibition of Chymotrypsinogen

Row | Compound | IC50
1 | N=C(N)CCCC[C@H]1C(=O)O[C@H]2CCC[C@@H]21 | > 100 µM
2 | N=C(N)c1cccc(C[C@H]2C(=O)O[C@H]3CCC[C@@H]32)c1 [3-((3R,3aR,6aS)-2-Oxo-hexahydro-cyclopenta[b]furan-3-ylmethyl)-benzamidine; compound with acetic acid] | > 100 µM
3 | O=C1O[C@H]2CCC[C@@H]2[C@H]1Cc1ccccc1 [(3R,3aR,6aS)-3-Benzyl-hexahydro-cyclopenta[b]furan-2-one] | > 100 µM
4 | O=C1O[C@H]2CCC[C@@H]2[C@H]1Sc1ccccc1 [(3R,3aS,6aS)-3-Phenylsulfanyl-hexahydro-cyclopenta[b]furan-2-one] | > 0.1 µM
5 | CC(C)=CC(=O)C[C@@H]1C(=O)O[C@H]2CCC[C@@H]21 [(3S,3aR,6aS)-3-(4-Methyl-2-oxo-pent-3-enyl)-hexahydro-cyclopenta[b]furan-2-one] | > 100 µM
6 | O=C1O[C@H]2CCC[C@@H]2[C@@H]1Cc1ccccc1 [(3S,3aR,6aS)-3-Benzyl-hexahydro-cyclopenta[b]furan-2-one] | > 100 µM
7 | O=C1O[C@H]2CCC[C@@H]2[C@@H]1Sc1ccccc1 [(3S,3aS,6aS)-3-Phenylsulfanyl-hexahydro-cyclopenta[b]furan-2-one] | > 100 µM

Target: T1, Chymotrypsin-C (Homo sapiens, UniProt Q99895)
T1 sequence (Q99895 whole entry): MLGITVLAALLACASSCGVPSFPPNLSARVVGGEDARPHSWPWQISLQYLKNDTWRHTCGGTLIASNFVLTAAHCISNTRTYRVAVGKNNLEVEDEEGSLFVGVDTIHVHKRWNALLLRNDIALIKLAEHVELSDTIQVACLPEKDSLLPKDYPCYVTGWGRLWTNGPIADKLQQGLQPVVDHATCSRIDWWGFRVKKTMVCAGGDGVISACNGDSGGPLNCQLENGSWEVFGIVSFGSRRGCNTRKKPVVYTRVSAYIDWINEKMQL
Test: ChEBML_49751
Protocol: Compound was evaluated for the inhibition of Chymotrypsinogen

Row | Compound | IC50
8 | N=C(N)c1ccc(C[C@H]2C(=O)O[C@H]3CCC[C@@H]32)cc1 [4-((3R,3aR,6aS)-2-Oxo-hexahydro-cyclopenta[b]furan-3-ylmethyl)-benzamidine; compound with acetic acid] | > 100 µM
